Measured values: US5273986A, “Cycloalkylthiazoles” (Hoffmann-La Roche Inc., priority 1992, dated 1993)
Where two headings read alike, the source gives them in different places.

How the values were obtained:
[1] = test system: LTD4-induced bronchoconstriction; assay: Antagonism of LTD4-induced bronchoconstriction in guinea pigs; type: in vivo, guinea pig (male, Hartley strain); details: for ED50 / inhibition in vivo at 1 mg/kg: Cavia porcellus; for inhibition in vivo at 1 mg/kg: read-out: percent inhibition at 1 mg/kg p.o., LTD4-induced bronchoconstriction (ID50 not determined)
Procedure: Male guinea pigs (Hartley strain, Charles River) weighing 400-600 g were anesthetized with urethane (2 g/kg) intraperitoneally, and a polyethylene cannula was inserted into the jugular vein for intravenous drug administration. Tracheal pressure (cm of H2 O) was recorded from a Statham pressure transducer (P 32 AA). Propranolol was administered 5 minutes prior to challenge with LTD4. Two minutes later spontaneous breathing was arrested with succinylcholine chloride (1.2 mg/kg) administered intravenously, and the animals were ventilated with a Harvard (Model 680) small animal respirator set at 40 breaths/min and a 4.0 cc stroke volume. Control vehicle (DMSO) or test compound was administered through the cannula into the jugular vein 1 minute before the animals were challenged with a maximum constrictory dose of LTD4 ([…] I.V.) given intravenously. The change in tracheal pressure was averaged for control and drug-treated animals and percent inhibition was calculated. For determination of oral activity, animals were dosed with test compound or vehicle (PEG400) two hours prior to challenge with LTD4 ([…], i.v.).
The relative potency of test compounds administered by the intravenous and oral route was determined by administering increasing doses of test compound at a fixed pretreatment time. The median inhibitory dose (ID50 value) was determined by linear regression of log dose-responsecurves generated by at least 3 doses that caused statistically significant inhibition between 10 and 90%. The correlation coefficient for the regression line was always greater than 0.95. For determination of the time-course of inhibition for various compounds, the time between administration of compound and challenge with LTD4 was varied. Durations of action were defined as the time for inhibitory activity to decrease to 50%.

LTD4 receptor = biological target: T1, LTD4 receptor (Cavia porcellus, UniProt Q2NNR5); assay: LTD4 receptor ligand binding assay (inhibition of [3H]LTD4 specific binding, guinea pig lung membranes); details: 20° C., 30 min
T1 construct: A lung homogenate was prepared from guinea pig lung membranes; from tissue; host or cells: guinea pig lung membranes
T1 sequence (Q2NNR5 1-340): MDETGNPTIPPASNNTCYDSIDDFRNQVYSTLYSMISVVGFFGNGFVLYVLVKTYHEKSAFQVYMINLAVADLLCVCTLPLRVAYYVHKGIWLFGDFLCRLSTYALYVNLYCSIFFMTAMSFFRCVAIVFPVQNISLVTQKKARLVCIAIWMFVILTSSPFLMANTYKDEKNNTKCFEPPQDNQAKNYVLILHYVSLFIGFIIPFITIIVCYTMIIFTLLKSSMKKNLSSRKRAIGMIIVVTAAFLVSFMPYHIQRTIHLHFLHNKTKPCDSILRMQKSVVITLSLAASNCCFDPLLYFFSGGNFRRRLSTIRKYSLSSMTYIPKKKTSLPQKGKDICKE
Procedure: A lung homogenate was prepared from guinea pig lung membranes and was resuspended in buffer containing 10 mM Tris.HCl (pH 7.5) (Hogaboom et al., Hogaboom, G. K., et al: Peptidoleukotrienes: distinct receptors for leukotriene C4 and D4 in the guinea pig lung. Biochem. Biophys. Res. Commun. 116: 1136-1143, 1983). Optimum assay conditions were determined with an assay mixture containing: 10 mM Tris.HCl (pH 7.5); 0.1% bovine serum albumin (BSA); 1 mM glycine; 1 mM cysteine; 3.5 nM [^3 H]LTD4 and the membrane preparation ([…] protein) in a final volume of […]. The incubation was carried out at 20° C. for 30 minutes. At 20° C., binding increased linearly with protein concentration, reached equilibrium in 20 minutes, was saturable, and was reversible upon addition of 1 mM unlabelled LTD4. Separation of bound from free [^3 H]LTD4 as performed by rapid filtration on GF/C glass fiber filters (Whatman International Ltd., Maidstone, England) and washing with two 4-ml aliquots of Tyrode solution (0.9 g/100 ml NaCl; 0.02 g/100 ml KCl; 0.02 g/100 ml CaCl2; 0.01 g/100 ml MgCl2; 0.1 g/100 ml glucose; 0.1 g/100 ml NaHCO3; 0.005 g/100 ml NaH2 PO4) containing 0.1% BSA. Radioactivity remaining on the filters was measured in 10 ml of Aquasol. Specific binding, was defined as that displaced by 1 mM unlabelled LTD4, and was 95% of total binding.
The inhibition of [^3 H]LTD4 specific binding by an antagonist is related to the LTD4 content of that sample by regression analysis from a "standard curve" of the inhibition of [^3 H]LTD4 specific binding by nonlabeled LTD4. The median inhibitory concentration (IC50 value) was determined by linear regression of log concentration-response curves generated by at least 3 concentrations that caused statistically significant inhibition between 10 and 90%. Results are expressed as mean±S. E. M. (standard error of the mean) of n independent experiments (separate receptor batches) conducted in duplicates.

[2] = iv, 1 min, I.V., compound 1 minute before LTD4 challenge, read-out: ID50 I.V., LTD4-induced bronchoconstriction
[3] = po, 2 h, p.o., compound two hours prior to LTD4 challenge, read-out: ID50 p.o., LTD4-induced bronchoconstriction
[4] = I.V., 1 mg/kg, compound 1 minute before LTD4 challenge
[5] = po, 2 h, p.o., 1 mg/kg, compound two hours prior to LTD4 challenge

Work on CC(C)c1csc(/C=C/c2cccc(NC(=O)Cc3ccccc3C(=O)O)c2)n1 [Example 1, (E)-2-[2-[3-[2-[4-(1-Methylethyl)-2-thiazolyl]ethenyl]phenylamino]-2-oxoethyl]benzoic acid] yielded an ED50 [1, 2] of 0.008 mg/kg, an ED50 [1, 3] of 0.5 mg/kg and an IC50 (LTD4 receptor) of 4 nM.
In the case of COC(=O)c1ccccc1CC(=O)Nc1cccc(/C=C/c2nc(C3CCC3)cs2)c1 [Example 4, (E)-2-[2-[3-[2-[4-(Cyclobutyl)-2-thiazolyl]ethenyl]phenylamino]-2-oxoethyl]benzoic Acid Methyl Ester], the ED50 [1, 2] is reported as 0.3 mg/kg and the ED50 [1, 3] is reported as 0.3 mg/kg.
With CN(C)C(=O)c1ccccc1CC(=O)Nc1cccc(/C=C/c2nc(C3CCC3)cs2)c1 [Example 5, (E)-2-[2-[3-[2-[4-(Cyclobutyl)-2-thiazolyl]ethenyl]phenylamino]-2-oxoethyl]-N,N-dimethylbenzamide] the ED50 [1, 2] was 0.005 mg/kg and the ED50 [1, 3] was 0.6 mg/kg.
Work on O=C(Cc1ccccc1CO)Nc1cccc(/C=C/c2nc(C3CCC3)cs2)c1 [Example 6, (E)-2-[2-[3-[2-[4-(Cyclobutyl)-2-thiazolyl]ethenyl]phenylamino]-2-oxoethyl]benzyl Alcohol] yielded an ED50 [1, 2] of 0.1 mg/kg and an ED50 [1, 3] of 0.3 mg/kg.
With O=C(Cc1cccc(C(=O)O)c1)Nc1cccc(/C=C/c2nc(C3CCC3)cs2)c1 [Example 7b, (E)-3-[2-[3-[2-[4-(Cyclobutyl)-2-thiazolyl]ethenyl]phenylamino]-2-oxoethyl]benzoic acid] the ED50 [1, 2] was 0.3 mg/kg.
In the case of O=C(Cc1ccc(C(=O)O)cc1)Nc1cccc(/C=C/c2nc(C3CCC3)cs2)c1 [Example 8b, (E)-4-[2-[3-[2-[4-(Cyclobutyl)-2-thiazolyl]ethenyl]phenylamino]-2-oxoethyl]benzoic acid], the “percent inhibition at 1 mg/kg I.V., LTD4-induced bronchoconstriction (ID50 not determined)” value (“percent inhibition … (ID50 not determined)” below) [1, 4] is reported as 50 ± 6%.
O=C(Cc1ccccc1C(=O)O)Nc1cccc(/C=C/c2nc(C3CCCC3)cs2)c1 [Example 9, (E)-2-[2-[3-[2-[4-(Cyclopentyl)-2-thiazolyl]ethenyl]phenylamino]-2-oxoethyl]benzoic acid] showed an ED50 [1, 2] of 0.005 mg/kg and an ED50 [1, 3] of 0.4 mg/kg.
With O=C(Cc1ccccc1C(=O)O)Nc1cccc(/C=C/c2nc(C3CCCCC3)cs2)c1 [Example 10, (E)-2-[2-[3-[2-[4-(Cyclohexyl)-2-thiazolyl]ethenyl]phenylamino]-2-oxoethyl]benzoic acid] the ED50 [1, 2] was 0.02 mg/kg and the ED50 [1, 3] was 0.43 mg/kg.
In the case of O=C(Cc1ccccc1C(=O)O)Nc1cccc(/C=C/c2nc(C3CCCCCC3)cs2)c1 [Example 11i, (E)-2-[2-[3-[2-[4-(Cycloheptyl)-2-thiazolyl]ethenyl]phenylamino]-2-oxoethyl]benzoic acid], the ED50 [1, 2] is reported as 0.02 mg/kg and the inhibition in vivo at 1 mg/kg [1, 5] is reported as 42 ± 10%.
In the case of O=C(Cc1ccccc1C(=O)O)Nc1cccc(/C=C/c2nc(C3CCCCCCC3)cs2)c1 [Example 12d, (E)-2-[2-[3-[2-[4-(Cyclooctyl)-2-thiazolyl]ethenyl]phenylamino]-2-oxoethyl]benzoic acid], the ED50 [1, 2] is reported as 0.15 mg/kg and the inhibition in vivo at 1 mg/kg [1, 5] is reported as 24 ± 4%.
In the case of Cc1ccc(NC(=O)Cc2ccccc2C(=O)O)cc1/C=C/c1nc(C(C)C)cs1 [Example 16g, (E)-2-[2-[4-Methyl-3-[2-[4-(1-methylethyl)-2-thiazolyl]ethenyl]phenylamino]-2-oxoethyl]benzoic acid], the ED50 [1, 2] is reported as 0.2 mg/kg and the inhibition in vivo at 1 mg/kg [1, 5] is reported as 24 ± 8%.
With CCOC(=O)c1csc(/C=C/c2cccc(NC(=O)Cc3ccccc3C(=O)O)c2)n1 [Example 18c, (E)-2-[2-[3-[2-[4-(Ethoxycarbonyl)-2-thiazolyl]ethenyl]phenylamino]-2-oxoethyl]benzoic acid] the ED50 [1, 2] was 0.2 mg/kg and the inhibition in vivo at 1 mg/kg [1, 5] was 13 ± 3%.
In the case of O=C(Cc1ccccc1C(=O)O)Nc1cccc(/C=C/c2nc(C(=O)O)cs2)c1 [Example 19], the “percent inhibition at 1 mg/kg, previous test” value ([1]; 1 mg/kg, previous test (footnote ** to the I.V. value)) is reported as 0 ± 0% and the “percent inhibition … (ID50 not determined)” value [1, 4] is reported as 12 ± 4%.
Compound O=C(Cc1ccccc1C(=O)O)Nc1cccc(/C=C/c2csc(C3CCC3)n2)c1 [Example 20h, (E)-2-[2-[3-[2-(2-Cyclobutyl-4-thiazolyl)ethenyl]phenylamino]-2-oxoethyl]benzoic acid] has an ED50 [1, 2] of 0.04 mg/kg and an inhibition in vivo at 1 mg/kg [1, 5] of 48 ± 6%.
Work on O=C(CCc1ccccc1C(=O)O)Nc1cccc(/C=C/c2nc(C3CCC3)cs2)c1 [Example 21b, (E)-2-[3-[3-[2-[4-(Cyclobutyl)-2-thiazolyl]ethenyl]phenylamino]-3-oxopropyl]benzoic acid] yielded an ED50 [1, 2] of 0.02 mg/kg and an ED50 [1, 3] of 8.2 mg/kg.
For O=C(NCc1ccccc1C(=O)O)c1cccc(/C=C/c2nc(C3CCC3)cs2)c1 [Example 22c, (E)-2-[[[[3-[2-(4-Cyclobutyl-2-thiazolyl)ethenyl]phenyl]carbonyl]amino]methyl]benzoic acid], the ED50 [1, 2] was 0.04 mg/kg and the ED50 [1, 3] was 0.1 mg/kg.
With O=C(Cc1ccc([N+](=O)[O-])cc1C(=O)O)Nc1cccc(/C=C/c2nc(C3CCC3)cs2)c1 [Example 23, (E)-5-Nitro-2-[2-[3-[2-[4-(cyclobutyl)-2-thiazolyl]ethenyl]phenylamino]-2-oxoethyl]benzoic acid] the “percent inhibition … (ID50 not determined)” value [1, 4] was 36 ± 6%.
O=C(Cc1ccc(Cl)cc1C(=O)O)Nc1cccc(/C=C/c2nc(C3CCC3)cs2)c1 [Example 24, (E)-5-chloro-2-[2-[3-[2-[4-(cyclobutyl)-2-thiazolyl]ethenyl]phenylamino]-2-oxoethyl]benzoic acid] showed an ED50 [1, 2] of 0.01 mg/kg and an ED50 [1, 3] of 0.2 mg/kg.
O=C(Cc1c(F)cccc1C(=O)O)Nc1cccc(/C=C/c2nc(C3CCC3)cs2)c1 [Example 25, (E)-3-fluoro-2-[2-[3-[2-[4-(cyclobutyl)-2-thiazolyl]ethenyl]phenylamino]-2-oxoethyl]benzoic acid] was tested, and the ED50 [1, 2] was 0.03 mg/kg and the inhibition in vivo at 1 mg/kg [1, 5] was 36 ± 6%.
With COc1ccc(CC(=O)Nc2cccc(/C=C/c3nc(C4CCC4)cs3)c2)c(C(=O)O)c1 [Example 26, (E)-5-Methoxy-2-[2-[3-[2-[4-(cyclobutyl)-2-thiazolyl]ethenyl]phenylamino]-2-oxoethyl]benzoic acid] the ED50 [1, 2] was 0.03 mg/kg and the ED50 [1, 3] was 0.2 mg/kg.
Work on O=C(Cc1ccc(F)cc1C(=O)O)Nc1cccc(/C=C/c2nc(C3CCC3)cs2)c1 [Example 27, (E)-5-fluoro-2-[2-[3-[2-[4-(cyclobutyl)-2-thiazolyl]ethenyl]phenylamino]-2-oxoethyl]benzoic acid] yielded an ED50 [1, 2] of 0.2 mg/kg.
Compound COc1cc(C(=O)O)ccc1CC(=O)Nc1cccc(/C=C/c2nc(C3CCC3)cs2)c1 [Example 28b, (E)-4-[2-[3-[2-[4-(cyclobutyl)-2-thiazolyl]ethenyl]phenylamino]-2-oxoethyl]-3-methoxybenzoic acid] has an ED50 [1, 2] of 0.4 mg/kg.
Compound CC(=O)Oc1ccc(CC(=O)Nc2cccc(/C=C/c3nc(C4CCC4)cs3)c2)c(C(=O)O)c1 [Example 31, (E)-5-Acetoxy-2-[2-[3-[2-[4-(cyclobutyl)-2-thiazolyl]ethenyl]phenylamino]-2-oxoethyl]benzoic Acid] has an ED50 [1, 2] of 0.004 mg/kg and an ED50 [1, 3] of 0.3 mg/kg.
